For assay [1], the target named is T1, NaV1.5 (Homo sapiens, UniProt Q14524).
T1 construct: gene SCN5A; stably expressed in CHO cells; no beta subunit mentioned
The experiment in a line: automated patch clamp (SyncroPatch […]PE). Type of assay: cell-based. Particulars: read-out: NaV1.5 peak.

Assay [2] has as its target T2, CaV1.2 (coexpressed with β2/α2δ1) (Homo sapiens, UniProt Q13936).
T2 construct: gene CACNA1C; stably expressed in CHO cells with beta2 and alpha2delta1; with Voltage-dependent L-type calcium channel subunit beta-2; Voltage-dependent calcium channel subunit alpha-2/delta-1
The experiment in a line: automated patch clamp (SyncroPatch […]PE). Particulars: read-out: CaV1.2 peak. In kind it is cell-based. (The patch-clamp technique gives a direct electrical read-out from membranes.)

Assay [3] addresses T3, Kir2.1 (Homo sapiens, UniProt P63252).
T3 construct: gene KCNJ2; stably expressed in CHO cells; IK1 current; homotetramer
T3 sequence (P63252 1-427): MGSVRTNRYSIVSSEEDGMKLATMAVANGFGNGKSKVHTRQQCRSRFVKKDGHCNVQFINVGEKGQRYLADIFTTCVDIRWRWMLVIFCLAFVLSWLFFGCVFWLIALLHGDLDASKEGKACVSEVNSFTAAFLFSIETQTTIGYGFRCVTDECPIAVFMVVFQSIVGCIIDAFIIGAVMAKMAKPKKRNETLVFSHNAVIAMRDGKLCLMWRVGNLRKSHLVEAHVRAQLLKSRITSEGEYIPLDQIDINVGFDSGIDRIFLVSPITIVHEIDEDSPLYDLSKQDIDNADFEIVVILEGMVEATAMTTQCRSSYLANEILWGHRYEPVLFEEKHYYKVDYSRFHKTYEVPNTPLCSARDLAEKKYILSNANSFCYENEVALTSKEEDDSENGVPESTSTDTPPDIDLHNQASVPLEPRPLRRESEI
The experiment in a line: automated patch clamp (QPatch). In kind it is cell-based. The source says:
automated patch clamp (QPatch) on Kir2.1

Assay [4] can be described thus: automated patch clamp (SyncroPatch […]PE). To be noted: read-out: CaV1.2 ramp. Type of assay: cell-based, Homo sapiens.
The target of assay [5] is T4, HCN4 (Homo sapiens, UniProt Q9Y3Q4).
T4 construct: stably expressed in HEK 293 cells; If current; homotetramer
T4 sequence (Q9Y3Q4 1-1203): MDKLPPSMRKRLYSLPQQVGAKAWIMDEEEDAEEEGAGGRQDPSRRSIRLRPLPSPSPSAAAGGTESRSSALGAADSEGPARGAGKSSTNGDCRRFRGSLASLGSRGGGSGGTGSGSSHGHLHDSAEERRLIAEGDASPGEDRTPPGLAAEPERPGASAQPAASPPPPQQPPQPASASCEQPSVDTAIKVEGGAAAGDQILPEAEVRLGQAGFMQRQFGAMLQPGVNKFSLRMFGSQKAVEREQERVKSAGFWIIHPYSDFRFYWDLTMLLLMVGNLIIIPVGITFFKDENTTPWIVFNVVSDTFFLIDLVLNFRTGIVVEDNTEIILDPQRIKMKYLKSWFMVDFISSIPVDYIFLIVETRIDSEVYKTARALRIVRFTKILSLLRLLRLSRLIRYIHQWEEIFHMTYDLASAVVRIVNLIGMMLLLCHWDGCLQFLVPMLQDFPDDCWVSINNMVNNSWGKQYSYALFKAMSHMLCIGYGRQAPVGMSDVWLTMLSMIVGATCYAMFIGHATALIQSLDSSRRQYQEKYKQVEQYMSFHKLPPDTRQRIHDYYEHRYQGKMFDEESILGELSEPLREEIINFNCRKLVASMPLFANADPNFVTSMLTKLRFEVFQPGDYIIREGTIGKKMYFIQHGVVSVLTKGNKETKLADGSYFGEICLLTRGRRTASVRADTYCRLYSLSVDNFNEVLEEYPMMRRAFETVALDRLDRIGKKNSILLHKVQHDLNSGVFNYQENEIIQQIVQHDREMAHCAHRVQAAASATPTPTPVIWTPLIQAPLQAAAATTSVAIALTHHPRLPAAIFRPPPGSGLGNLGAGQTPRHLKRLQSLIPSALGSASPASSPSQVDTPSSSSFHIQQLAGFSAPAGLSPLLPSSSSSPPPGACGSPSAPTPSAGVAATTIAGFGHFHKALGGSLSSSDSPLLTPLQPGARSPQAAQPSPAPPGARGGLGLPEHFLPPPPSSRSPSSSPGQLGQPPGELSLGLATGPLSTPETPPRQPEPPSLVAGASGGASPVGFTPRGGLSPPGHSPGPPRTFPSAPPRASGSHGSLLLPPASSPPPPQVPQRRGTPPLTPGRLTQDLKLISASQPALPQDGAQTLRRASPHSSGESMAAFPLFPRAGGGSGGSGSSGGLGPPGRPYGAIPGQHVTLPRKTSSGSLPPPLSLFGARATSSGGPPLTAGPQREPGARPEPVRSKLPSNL
The experiment in a line: automated patch clamp (SyncroPatch […]PE). In kind it is cell-based.

For assay [6], the target named is T5, hERG (Homo sapiens, UniProt Q12809).
T5 construct: gene KCNH2; stably expressed in CHO cells; IKr current; homotetramer
The experiment in a line: automated patch clamp (SyncroPatch […]PE). Type of assay: cell-based.

Assay [7] addresses T6, KV7.1/minK (Homo sapiens, UniProt P51787).
T6 construct: gene KCNQ1; stably expressed in CHO cells; IKs current
Nature of the assay: automated patch clamp (SyncroPatch […]PE). Type of assay: cell-based.

Assay [8] can be described thus: automated patch clamp (SyncroPatch […]PE). In kind it is cell-based, Homo sapiens. Particulars: read-out: CaV1.2 ramp. This is another data set of the same source.

Each structure is given as a SMILES string. Where two headings read alike, the source gives them in different places.

The text below walks through data of publication PMC8014548, “Applying the CiPA approach to evaluate cardiac proarrhythmia risk of some antimalarials used off‐label in the first wave of COVID‐19” (Clinical and Translational Science, 2021).

T2 sequence (Q13936 whole entry): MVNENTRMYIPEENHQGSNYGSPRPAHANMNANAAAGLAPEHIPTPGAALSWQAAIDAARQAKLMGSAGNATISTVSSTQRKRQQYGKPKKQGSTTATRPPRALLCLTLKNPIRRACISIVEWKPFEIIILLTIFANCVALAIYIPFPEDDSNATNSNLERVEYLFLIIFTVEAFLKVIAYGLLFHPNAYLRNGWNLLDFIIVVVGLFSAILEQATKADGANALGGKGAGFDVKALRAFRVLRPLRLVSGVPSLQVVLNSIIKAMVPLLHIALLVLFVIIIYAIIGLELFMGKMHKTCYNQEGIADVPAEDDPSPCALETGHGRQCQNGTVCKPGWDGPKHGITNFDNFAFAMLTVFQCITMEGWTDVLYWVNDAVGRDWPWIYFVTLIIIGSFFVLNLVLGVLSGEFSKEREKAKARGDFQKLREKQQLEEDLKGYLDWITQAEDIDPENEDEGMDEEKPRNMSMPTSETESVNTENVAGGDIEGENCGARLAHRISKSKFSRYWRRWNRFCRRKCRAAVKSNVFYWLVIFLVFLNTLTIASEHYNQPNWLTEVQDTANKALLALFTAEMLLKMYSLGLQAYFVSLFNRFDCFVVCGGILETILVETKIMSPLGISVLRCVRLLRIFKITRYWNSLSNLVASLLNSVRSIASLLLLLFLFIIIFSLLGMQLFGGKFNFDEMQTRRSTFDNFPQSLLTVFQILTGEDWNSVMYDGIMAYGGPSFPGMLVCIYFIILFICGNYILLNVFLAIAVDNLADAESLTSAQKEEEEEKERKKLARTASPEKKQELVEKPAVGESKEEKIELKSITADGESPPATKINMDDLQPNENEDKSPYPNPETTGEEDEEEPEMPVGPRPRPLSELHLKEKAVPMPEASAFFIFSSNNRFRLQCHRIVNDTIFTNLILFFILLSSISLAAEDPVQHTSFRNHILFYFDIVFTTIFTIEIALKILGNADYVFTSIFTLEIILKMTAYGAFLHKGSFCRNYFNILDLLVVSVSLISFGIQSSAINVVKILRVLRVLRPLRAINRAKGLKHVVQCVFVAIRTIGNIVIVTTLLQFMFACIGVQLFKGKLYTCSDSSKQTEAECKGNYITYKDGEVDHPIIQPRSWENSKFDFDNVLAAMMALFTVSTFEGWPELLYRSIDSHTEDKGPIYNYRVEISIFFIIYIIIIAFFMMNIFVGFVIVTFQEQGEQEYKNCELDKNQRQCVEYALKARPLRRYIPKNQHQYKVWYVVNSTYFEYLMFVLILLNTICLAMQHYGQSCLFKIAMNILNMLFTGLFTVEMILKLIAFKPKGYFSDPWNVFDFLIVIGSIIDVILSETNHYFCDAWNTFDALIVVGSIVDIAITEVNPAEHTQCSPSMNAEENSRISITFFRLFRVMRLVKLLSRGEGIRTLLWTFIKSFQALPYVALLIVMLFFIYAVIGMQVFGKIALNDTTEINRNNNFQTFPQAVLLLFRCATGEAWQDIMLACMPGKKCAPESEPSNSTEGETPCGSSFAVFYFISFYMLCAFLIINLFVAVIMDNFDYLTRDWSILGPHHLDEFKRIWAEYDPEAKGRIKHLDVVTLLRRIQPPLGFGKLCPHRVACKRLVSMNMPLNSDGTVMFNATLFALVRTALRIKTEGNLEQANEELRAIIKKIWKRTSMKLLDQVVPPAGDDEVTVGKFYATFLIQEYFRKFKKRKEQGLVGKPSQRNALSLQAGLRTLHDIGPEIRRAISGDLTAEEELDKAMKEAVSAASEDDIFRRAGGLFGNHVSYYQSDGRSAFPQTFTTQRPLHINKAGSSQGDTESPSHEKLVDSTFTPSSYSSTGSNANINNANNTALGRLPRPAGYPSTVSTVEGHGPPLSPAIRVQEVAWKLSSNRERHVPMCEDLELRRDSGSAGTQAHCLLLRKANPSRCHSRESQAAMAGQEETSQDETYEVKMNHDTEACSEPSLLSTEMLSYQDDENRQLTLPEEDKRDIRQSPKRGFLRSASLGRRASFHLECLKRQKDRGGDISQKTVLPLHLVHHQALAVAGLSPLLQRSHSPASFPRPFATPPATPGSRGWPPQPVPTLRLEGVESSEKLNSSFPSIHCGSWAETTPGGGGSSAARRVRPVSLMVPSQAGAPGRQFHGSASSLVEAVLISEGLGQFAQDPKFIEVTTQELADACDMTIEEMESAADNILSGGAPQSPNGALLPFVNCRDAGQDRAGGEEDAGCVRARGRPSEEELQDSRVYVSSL
T2 sequence (Q08289 whole entry partner): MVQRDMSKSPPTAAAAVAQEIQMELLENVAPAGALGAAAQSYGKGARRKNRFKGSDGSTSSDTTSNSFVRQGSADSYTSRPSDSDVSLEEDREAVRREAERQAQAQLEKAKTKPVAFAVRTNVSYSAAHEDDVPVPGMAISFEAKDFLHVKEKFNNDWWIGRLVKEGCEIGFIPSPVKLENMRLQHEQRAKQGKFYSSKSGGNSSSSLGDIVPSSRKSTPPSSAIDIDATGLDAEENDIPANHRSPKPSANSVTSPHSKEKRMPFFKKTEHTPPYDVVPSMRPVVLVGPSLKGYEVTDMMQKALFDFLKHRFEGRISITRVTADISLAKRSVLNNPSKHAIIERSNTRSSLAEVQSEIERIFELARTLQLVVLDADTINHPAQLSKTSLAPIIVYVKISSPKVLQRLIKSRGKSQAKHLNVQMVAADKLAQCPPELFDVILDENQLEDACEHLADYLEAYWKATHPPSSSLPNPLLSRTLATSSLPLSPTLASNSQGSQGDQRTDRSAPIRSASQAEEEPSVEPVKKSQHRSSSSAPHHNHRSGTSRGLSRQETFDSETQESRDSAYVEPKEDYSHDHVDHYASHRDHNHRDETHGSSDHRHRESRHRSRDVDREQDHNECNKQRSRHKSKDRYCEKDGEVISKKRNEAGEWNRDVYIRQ
T2 sequence (P54289 25-956 partner): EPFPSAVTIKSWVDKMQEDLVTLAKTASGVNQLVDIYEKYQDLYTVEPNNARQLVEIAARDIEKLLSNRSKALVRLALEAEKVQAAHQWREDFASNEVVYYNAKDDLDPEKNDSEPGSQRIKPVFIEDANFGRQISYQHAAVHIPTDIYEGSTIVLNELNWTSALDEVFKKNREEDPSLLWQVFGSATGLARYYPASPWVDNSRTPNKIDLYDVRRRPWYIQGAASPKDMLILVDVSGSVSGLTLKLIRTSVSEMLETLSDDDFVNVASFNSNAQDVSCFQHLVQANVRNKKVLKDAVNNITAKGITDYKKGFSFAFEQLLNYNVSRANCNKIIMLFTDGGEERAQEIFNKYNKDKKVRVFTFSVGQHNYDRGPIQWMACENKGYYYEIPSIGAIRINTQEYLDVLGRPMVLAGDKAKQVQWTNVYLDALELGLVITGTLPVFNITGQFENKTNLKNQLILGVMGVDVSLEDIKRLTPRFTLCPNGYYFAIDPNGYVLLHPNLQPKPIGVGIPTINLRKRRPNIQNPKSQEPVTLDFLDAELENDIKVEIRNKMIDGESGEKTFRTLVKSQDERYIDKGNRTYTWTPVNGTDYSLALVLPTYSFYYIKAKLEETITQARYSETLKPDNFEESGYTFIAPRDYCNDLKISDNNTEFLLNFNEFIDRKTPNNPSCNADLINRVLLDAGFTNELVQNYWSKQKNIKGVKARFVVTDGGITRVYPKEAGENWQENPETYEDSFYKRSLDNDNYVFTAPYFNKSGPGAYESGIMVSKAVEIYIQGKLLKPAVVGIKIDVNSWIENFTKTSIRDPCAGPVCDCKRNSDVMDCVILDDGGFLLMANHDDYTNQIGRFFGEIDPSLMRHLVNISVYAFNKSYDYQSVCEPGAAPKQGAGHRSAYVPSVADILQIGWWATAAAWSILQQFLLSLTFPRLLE
T2 sequence (P54289 957-1103 partner): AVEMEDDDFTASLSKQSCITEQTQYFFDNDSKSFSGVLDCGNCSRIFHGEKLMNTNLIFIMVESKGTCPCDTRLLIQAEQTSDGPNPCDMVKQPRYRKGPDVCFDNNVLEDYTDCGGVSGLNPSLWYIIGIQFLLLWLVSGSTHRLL
T6 sequence (P51787 whole entry): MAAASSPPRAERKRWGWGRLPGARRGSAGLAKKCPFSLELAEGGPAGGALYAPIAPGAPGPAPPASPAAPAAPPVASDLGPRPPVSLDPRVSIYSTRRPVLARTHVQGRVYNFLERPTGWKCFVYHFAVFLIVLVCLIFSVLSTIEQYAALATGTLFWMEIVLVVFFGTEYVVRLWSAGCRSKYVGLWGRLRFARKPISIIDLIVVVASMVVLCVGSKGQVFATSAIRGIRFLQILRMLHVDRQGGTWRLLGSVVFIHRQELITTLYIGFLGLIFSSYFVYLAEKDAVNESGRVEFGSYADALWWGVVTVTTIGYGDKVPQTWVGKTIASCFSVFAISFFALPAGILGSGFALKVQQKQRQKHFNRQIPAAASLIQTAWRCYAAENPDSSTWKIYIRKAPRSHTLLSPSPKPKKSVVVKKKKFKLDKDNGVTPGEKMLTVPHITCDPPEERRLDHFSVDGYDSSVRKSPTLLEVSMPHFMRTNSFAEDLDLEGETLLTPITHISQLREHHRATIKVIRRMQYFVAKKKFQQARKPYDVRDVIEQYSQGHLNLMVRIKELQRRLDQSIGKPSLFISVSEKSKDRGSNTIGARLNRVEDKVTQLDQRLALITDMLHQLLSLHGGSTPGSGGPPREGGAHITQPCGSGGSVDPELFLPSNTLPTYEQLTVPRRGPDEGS

Regarding `CCN(CC)CCCC(C)Nc1ccnc2cc(Cl)ccc12` (stereo not shown) [chloroquine], the IC50 in assay [1] is 13.9 µM; in assay [2], 17.9 µM; in assay [3] (read-out: Kir2.1), 4.98 µM; in assay [4], over 300 µM; in assay [5] (read-out: HCN4), 96.2 µM.

Take `CC[C@H]1OC(=O)[C@H](C)[C@@H](O[C@H]2C[C@@](C)(OC)[C@@H](O)[C@H](C)O2)[C@H](C)[C@@H](O[C@@H]2O[C@H](C)C[C@H](N(C)C)[C@H]2O)[C@](C)(O)C[C@@H](C)CN(C)[C@H](C)[C@@H](O)[C@]1(C)O` [azithromycin]: the IC50 was 612 µM in assay [1]; 439 µM in assay [6]; 771 µM in assay [2]; over 1000 µM in assay [3] (read-out: NaV1.5 late); over 1000 µM in assay [7] (read-out: NaV1.5 late); over 1000 µM in assay [5] (read-out: NaV1.5 late).

Regarding `CCN(CCO)CCCC(C)Nc1ccnc2cc(Cl)ccc12` (stereo not shown) [hydroxychloroquine], the IC50 in assay [1] is 17 µM; in assay [6], 2.66 µM; in assay [2] it was 23.9 µM; in assay [3] (read-out: NaV1.5 peak), 44.2 µM; in assay [4] it was over 300 µM; in assay [8], over 300 µM.

Regarding `CC[C@H]1OC(=O)[C@H](C)[C@@H](O[C@H]2C[C@@](C)(OC)[C@@H](O)[C@H](C)O2)[C@H](C)[C@@H](O[C@@H]2O[C@H](C)C[C@H](N(C)C)[C@H]2O)[C@](C)(O)C[C@@H](C)C(=O)[C@H](C)[C@@H](O)[C@]1(C)O` [erythromycin], the IC50 in assay [7] (read-out: NaV1.5 peak) and in assay [5] (read-out: NaV1.5 peak) was over 1000 µM each time.
